# Active and inactive are the calls of the source.
# How the values were obtained:
# [1] = molecular target: T1, Corticotropin-releasing factor receptor 2/Corticotropin-releasing factor-binding protein (Homo sapiens, UniProt P24387+Q13324); test: activators of CRF receptor 2 with binding protein – uHTS hits, confirmation (AID 602473); format: functional; settings: read-out: EC50_Mean
# T1 sequence (Q13324 whole entry): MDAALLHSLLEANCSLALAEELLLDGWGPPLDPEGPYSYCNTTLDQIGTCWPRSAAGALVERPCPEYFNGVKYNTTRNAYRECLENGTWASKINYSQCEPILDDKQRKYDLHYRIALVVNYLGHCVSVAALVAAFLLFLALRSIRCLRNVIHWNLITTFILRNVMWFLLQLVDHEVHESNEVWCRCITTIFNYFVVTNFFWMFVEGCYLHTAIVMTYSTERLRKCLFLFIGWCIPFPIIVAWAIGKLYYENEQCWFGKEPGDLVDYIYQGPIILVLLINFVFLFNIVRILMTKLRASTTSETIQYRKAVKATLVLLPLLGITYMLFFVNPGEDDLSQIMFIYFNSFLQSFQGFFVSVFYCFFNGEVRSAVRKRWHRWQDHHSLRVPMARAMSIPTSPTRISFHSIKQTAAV
# T1 sequence (P24387 whole entry): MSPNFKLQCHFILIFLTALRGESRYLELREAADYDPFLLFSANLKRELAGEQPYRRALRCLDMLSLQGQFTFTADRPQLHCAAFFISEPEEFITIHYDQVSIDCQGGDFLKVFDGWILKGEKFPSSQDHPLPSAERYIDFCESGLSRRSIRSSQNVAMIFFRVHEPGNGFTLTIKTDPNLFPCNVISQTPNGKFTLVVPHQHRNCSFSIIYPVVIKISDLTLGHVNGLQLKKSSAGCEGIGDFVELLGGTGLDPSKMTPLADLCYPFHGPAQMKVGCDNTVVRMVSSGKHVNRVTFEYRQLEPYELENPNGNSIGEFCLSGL
# Beta-galactosidase = Beta-galactosidase (Escherichia coli, UniProt Q8VNN2); test: Dose response counterscreen for EBI2 assay utilizing the enzyme, b-galactosidase.; format: functional
# Beta-galactosidase, sequence (Q8VNN2 whole entry): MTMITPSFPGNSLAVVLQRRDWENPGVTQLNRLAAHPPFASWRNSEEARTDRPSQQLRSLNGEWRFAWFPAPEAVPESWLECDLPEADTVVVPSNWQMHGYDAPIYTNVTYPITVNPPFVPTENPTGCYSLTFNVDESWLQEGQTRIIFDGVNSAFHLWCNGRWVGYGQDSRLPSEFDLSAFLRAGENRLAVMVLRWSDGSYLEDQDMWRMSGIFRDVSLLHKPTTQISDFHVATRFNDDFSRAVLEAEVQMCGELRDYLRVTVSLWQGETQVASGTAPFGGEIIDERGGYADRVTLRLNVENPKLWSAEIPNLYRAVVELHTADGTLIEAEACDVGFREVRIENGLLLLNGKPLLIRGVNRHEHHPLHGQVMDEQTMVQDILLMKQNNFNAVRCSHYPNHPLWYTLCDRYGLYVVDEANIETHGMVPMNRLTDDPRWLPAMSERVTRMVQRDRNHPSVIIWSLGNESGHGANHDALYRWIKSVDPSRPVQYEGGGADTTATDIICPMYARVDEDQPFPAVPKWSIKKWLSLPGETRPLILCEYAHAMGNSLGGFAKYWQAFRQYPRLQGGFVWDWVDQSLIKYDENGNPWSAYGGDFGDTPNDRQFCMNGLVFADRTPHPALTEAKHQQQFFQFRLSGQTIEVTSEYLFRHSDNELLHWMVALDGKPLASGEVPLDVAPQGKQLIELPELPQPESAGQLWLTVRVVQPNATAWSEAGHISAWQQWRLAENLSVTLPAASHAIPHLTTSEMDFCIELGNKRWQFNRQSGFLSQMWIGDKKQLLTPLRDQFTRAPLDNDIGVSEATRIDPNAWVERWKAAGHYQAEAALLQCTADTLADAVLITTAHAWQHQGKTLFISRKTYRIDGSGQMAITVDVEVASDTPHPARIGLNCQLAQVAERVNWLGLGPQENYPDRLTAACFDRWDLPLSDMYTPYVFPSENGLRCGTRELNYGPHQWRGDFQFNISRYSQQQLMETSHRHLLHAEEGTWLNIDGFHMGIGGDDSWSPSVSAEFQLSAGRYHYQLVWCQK
# [2] = molecular target: T1, Corticotropin-releasing factor receptor 2/Corticotropin-releasing factor-binding protein; test: Dose Response confirmation of uHTS hits for small molecule antagonists of the CRF-binding protein and CRF-R2 receptor complex.; format: functional; settings: read-out: IC50_Mean
# [3] = molecular target: 5-hydroxytryptamine receptor 2A (Mus musculus, UniProt P35363); format: functional, cell-based;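 also: CHO-K1 cells with tagged receptor and beta-arrestin; agonist potency measured as compound-induced activation of the receptor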
# 5-hydroxytryptamine receptor 2A, sequence (P35363 whole entry): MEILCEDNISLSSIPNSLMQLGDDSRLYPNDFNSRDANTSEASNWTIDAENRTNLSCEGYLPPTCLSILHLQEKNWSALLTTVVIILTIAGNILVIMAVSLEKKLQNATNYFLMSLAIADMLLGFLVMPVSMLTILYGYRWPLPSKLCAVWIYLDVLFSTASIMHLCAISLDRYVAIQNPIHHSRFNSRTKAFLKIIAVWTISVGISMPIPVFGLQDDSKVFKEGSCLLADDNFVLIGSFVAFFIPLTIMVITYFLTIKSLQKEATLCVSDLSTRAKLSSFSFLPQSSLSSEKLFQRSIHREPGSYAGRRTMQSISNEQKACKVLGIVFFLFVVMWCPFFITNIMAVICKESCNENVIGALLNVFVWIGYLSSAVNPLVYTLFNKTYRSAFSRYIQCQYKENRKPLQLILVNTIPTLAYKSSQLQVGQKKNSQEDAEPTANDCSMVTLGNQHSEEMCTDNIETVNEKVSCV
# Mu-type opioid receptor = Mu-type opioid receptor (Homo sapiens, UniProt P35372); format: functional, cell-based;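 also: U2OS cells with beta-arrestin recruitment to OPRM1 by beta-gal complementation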
# Beta-lactamase [4] = molecular target: Beta-lactamase (Pseudomonas aeruginosa, UniProt Q79MP6);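 also: biochemical dose-response test of metallo-beta-lactamase enzyme inhibition, read out by epi-absorbance; purified recombinant IMP-1 metallo-beta-lactamase with nitrocefin as substrate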
# Beta-lactamase (Pseudomonas aeruginosa, UniProt Q79MP6), sequence (Q79MP6 whole entry): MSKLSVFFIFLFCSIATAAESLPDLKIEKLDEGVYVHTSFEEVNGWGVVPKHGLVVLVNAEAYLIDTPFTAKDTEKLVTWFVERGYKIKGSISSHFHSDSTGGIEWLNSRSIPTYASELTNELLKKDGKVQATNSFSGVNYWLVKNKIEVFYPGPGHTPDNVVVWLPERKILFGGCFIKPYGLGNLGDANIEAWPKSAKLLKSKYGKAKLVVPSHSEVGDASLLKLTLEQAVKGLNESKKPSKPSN
# Beta-lactamase [5] = molecular target: Beta-lactamase (Salmonella choleraesuis (strain SC-B67), UniProt Q5J463)
# Vero = test: viability loss in Vero cells – cell-based, plate reader, cherry-pick samples, cytotoxicity control, dose response (AID 687020); format: functional; settings: Chlorocebus sabaeus
# [6] = molecular target: ADP-ribosylation factor GTPase-activating protein 1 (Rattus norvegicus, UniProt Q62848); test: Fluorescence polarization-based biochemical high throughput dose response screening assay to identify inhibitors of ADP-ribosylation factor GTPase activating protein 1 (ARFGAP1).; format: functional
# [7] = molecular target: T2, Sentrin-specific protease 1 (Homo sapiens, UniProt Q9P0U3); test: SENP1 catalytic domain blockers, concentration series – biochemical, kinetic FRET, dose response (AID 651697); format: functional; settings: read-out: IC50_Mean
# T2 sequence (Q9P0U3 whole entry, the tested form may be a part): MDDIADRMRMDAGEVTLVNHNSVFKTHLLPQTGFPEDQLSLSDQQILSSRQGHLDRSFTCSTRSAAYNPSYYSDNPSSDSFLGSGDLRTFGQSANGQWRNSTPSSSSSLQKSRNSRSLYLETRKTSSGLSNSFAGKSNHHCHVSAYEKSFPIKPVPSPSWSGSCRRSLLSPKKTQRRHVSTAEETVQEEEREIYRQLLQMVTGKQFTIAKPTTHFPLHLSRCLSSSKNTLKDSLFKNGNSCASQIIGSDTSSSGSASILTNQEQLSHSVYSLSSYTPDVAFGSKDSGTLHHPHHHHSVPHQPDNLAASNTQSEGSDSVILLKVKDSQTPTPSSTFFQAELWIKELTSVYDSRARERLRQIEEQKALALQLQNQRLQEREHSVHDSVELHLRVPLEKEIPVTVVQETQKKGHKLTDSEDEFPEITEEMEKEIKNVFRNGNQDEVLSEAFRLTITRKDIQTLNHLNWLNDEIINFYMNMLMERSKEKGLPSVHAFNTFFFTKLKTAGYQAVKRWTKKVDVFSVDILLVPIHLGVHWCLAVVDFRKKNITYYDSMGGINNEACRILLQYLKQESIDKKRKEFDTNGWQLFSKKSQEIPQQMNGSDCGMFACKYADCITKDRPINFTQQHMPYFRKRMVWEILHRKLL
# Fatty acid synthase [8] = molecular target: T3, Fatty acid synthase (Homo sapiens, UniProt P49327); test: inhibition of human FAS-TE enzyme activity – biochemical, kinetic fluorescence intensity, dose response (AID 624326); format: functional;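 also: rate of fluorescence rise from hydrolysis of a fluorogenic O-methyl fluorescein ester substrate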
# T3 sequence (P49327 whole entry, the tested form may be a part): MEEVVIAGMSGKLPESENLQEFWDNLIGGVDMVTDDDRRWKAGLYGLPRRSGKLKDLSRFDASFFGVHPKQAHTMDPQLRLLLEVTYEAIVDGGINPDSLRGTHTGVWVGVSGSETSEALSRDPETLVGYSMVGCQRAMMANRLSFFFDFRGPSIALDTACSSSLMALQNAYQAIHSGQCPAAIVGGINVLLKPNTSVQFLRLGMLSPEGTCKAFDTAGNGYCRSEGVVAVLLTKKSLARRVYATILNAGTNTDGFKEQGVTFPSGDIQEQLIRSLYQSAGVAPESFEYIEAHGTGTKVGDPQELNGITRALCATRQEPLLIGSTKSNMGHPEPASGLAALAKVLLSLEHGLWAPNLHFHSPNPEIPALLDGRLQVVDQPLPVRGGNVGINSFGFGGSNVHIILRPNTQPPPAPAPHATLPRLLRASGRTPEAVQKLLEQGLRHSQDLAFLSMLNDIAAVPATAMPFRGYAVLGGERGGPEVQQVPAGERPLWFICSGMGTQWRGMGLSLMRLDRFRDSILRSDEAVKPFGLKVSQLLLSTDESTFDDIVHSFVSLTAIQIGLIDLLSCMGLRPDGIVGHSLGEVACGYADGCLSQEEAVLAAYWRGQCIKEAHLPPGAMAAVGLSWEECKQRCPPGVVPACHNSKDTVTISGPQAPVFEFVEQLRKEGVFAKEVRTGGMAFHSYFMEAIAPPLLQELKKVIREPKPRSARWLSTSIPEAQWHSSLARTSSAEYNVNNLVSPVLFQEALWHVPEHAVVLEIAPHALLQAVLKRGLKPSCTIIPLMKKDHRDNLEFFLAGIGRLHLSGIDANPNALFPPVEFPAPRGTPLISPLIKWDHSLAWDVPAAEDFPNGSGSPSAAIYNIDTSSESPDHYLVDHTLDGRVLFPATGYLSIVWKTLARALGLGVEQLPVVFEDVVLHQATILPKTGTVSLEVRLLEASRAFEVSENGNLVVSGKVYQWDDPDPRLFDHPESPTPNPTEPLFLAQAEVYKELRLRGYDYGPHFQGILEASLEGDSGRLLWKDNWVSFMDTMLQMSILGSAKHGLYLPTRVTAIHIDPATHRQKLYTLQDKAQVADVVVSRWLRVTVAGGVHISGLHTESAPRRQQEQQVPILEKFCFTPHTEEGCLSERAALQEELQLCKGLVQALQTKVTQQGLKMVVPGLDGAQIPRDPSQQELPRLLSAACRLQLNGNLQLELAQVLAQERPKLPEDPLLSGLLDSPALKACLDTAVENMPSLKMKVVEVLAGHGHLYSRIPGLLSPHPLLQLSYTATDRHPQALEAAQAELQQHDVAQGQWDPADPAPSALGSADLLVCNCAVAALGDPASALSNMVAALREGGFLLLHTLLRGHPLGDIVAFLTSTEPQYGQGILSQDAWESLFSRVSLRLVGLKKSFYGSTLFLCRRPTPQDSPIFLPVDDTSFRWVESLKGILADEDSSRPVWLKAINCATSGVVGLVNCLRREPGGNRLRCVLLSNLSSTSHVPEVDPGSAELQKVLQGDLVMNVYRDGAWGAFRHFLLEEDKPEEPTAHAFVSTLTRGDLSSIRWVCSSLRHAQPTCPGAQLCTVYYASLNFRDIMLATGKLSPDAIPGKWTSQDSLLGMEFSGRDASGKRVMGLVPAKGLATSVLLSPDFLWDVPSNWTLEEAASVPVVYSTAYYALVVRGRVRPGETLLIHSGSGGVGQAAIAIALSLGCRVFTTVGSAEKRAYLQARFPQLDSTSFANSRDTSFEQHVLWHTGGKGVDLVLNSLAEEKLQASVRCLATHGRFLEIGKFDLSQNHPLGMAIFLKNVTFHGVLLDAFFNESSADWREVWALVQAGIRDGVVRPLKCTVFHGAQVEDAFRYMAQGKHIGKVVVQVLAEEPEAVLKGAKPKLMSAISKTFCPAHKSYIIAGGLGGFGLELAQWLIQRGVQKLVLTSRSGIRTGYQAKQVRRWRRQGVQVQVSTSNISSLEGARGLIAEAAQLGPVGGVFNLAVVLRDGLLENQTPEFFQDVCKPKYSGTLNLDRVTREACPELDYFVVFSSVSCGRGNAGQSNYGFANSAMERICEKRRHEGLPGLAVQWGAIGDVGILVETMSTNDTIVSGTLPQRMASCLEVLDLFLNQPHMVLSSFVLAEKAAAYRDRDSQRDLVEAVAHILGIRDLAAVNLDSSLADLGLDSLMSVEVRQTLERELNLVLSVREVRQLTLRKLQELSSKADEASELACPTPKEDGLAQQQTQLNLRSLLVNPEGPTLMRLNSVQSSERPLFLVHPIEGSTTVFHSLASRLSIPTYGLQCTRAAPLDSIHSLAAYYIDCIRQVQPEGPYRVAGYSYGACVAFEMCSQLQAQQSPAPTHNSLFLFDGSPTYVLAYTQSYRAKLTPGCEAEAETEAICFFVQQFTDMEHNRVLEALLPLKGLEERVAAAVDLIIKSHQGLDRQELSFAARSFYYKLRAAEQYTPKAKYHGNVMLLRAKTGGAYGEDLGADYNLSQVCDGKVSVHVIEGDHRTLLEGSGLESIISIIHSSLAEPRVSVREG
# [9] = molecular target: T2, Sentrin-specific protease 1; test: Dose response confirmation of small molecule inhibitors of the catalytic domain of the SUMO protease, SENP1 in a FRET assay.; format: functional; settings: read-out: IC50_Mean
# Fatty acid synthase [10] = molecular target: T3, Fatty acid synthase; test: inhibition of human FAS-TE enzyme activity – biochemical, endpoint fluorescence intensity, uHTS hits, dose response (AID 624327); format: functional;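 also: fluorescence from hydrolysis of an O-methyl fluorescein acyl ester substrate by the enzyme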
smiles,measurement,setting,value
CSc1ccc(/C=C/C(=O)N2CCN(c3ccccn3)CC2)cc1,EC50,[1],> 53 µM (inactive)
same,IC50,Beta-galactosidase,> 80 µM (inactive)
same,IC50,[2],> 47.1 µM (inactive)
Cc1ccc2c(C)c(C(=O)Nc3c(C)n(C)n(-c4ccccc4)c3=O)oc2c1C,EC50,[3],18.9 µM (inactive)
same,EC50,Mu-type opioid receptor,92.5 µM (inactive)
N#CC(C#N)=C1C=C2C=C(N3CCCCC3)CCC2CC1 (stereo not drawn),IC50,Beta-lactamase [4],2.51 µM (active)
same,IC50,Beta-lactamase [5],1.23 µM (active)
CC(C)(CN1CCN(Cc2ccccc2)CC1)NS(=O)(=O)c1ccc(Cl)cc1,AC50,Vero,33.7 µM (active)
Cc1cc([N+](=O)[O-])c(C)cc1-c1ccc(/C=N/NC(=O)Cn2nnnc2N)o1,IC50,[6],17.8 µM (inactive)
Cc1coc(NC(=O)CSc2nc(-c3ccncc3)cc(C(F)(F)F)c2C#N)n1,IC50,[7],35.9 µM (inactive)
same,IC50,Fatty acid synthase [8],14.8 µM (active)
same,IC50,[9],25.4 µM (inactive)
same,IC50,Fatty acid synthase [10],18.5 µM (active)
